Data reported in patent US20060089302A1, “Hsp70-derived peptides and uses thereof in the diagnosis and treatment of autoimmune diseases” (priority 2002, published 2006).
“And” between values parts separate entries of the source, which are not always exact repeats. Identical values can stand only once.

Assays:
[1] = system: peripheral blood mononuclear cells (PBMC) / T-cells; test: T-cell proliferation assay (3H-Thymidine incorporation, stimulation index); type: cell-based, human; details: for T-cell reactivity to hsp70 peptide (epitope mapping): seven Type 1 Diabetes patients (P3, P16, P18, P20, P21, P23, P24), immunogenic when at least 3 out of 7 patients had S.I.≥2; for T-cell reactivity to hsp70 peptide (epitope mapping) / Number of Type 1 Diabetes subjects responding to the peptide: peptide 5-20 μg/ml; for Number of Type 1 Diabetes subjects responding to the peptide: epitope mapping, seven subjects tested (p1: three of these plus two adult patients), S.I.≥2; for T-cell proliferative response, S.I., Mean ± SD: group mean
[2] = system: serum IgG anti-hsp60, anti-hsp70, anti-hsp90, anti-tetanus toxoid; test: Determination of auto-antibodies (antibody capture ELISA on antigen-coated plates); type: binding, human; details: for IgG antibodies to the antigen in serum, Mean ± SD: group mean
Description: All of the serum samples that were collected were stored in aliquotes at −20° C. and thawed before each assay. Total human IgG anti-hsp60, anti-hsp70, and anti-hsp90, as well as anti-tetanus toxoid proteins were detected by the antibody capture-type enzyme immunoassay ELISA [Maggio, M. T. (1981) Enzyme Immunoassay, CRC Press, Boca Raton, USA]. 96-well micro titer plates (Dynatech) were coated with the protein according to the antibody being tested. Serum samples were distributed at dilutions in the range of 1:50 to 1:70 into the pre-coated wells for the protein detection assay. Thus, any IgG anti-hsp60, anti-hsp70, anti-hsp90, or anti-tetanus toxoid present should be bound by the immobilized peptide or protein. After washing off unbound material, a mouse monoclonal anti-human IgG antibody conjugated to alkaline phosphatase (AP) was added to the wells. After an additional washing step to remove any unbound anti-enzyme reagent, the AP substrate p-nitrophenyl phosphate (pNPP) solution was added. The intensity of the color developed was measured using an Anthos htll ELISA reader at λ=405 nm. The amount of antibody detected was represented as Units of Optical Density at λ=405 nm. Patients and control subjects were assayed in the same experiment.
The InStat 2.01 computer program was used for the statistical analysis. The results obtained from the samples of healthy individuals were used to determine the cutoff for each assay, which was established as the mean plus two standard deviations (SDs). […] The results were presented as the percentage of positive from the total tested group.
Levels of IgG antibodies to hsp60, hsp70, and hsp90 were measured in the sera of 20 Type 1 Diabetes children (P1-P5, P7-P21; Table 3A) and two control groups, 10 normoglycemic children (Table 3B) and 15 healthy adult blood donors (Table 3C). The level of the antibodies was scored as positive when it was greater than the cut-off level (cut-off levels were established based on the mean value of antibody levels from the normoglycemic children plus two standard deviations).

[3] = Type 1 diabetes children (n=20), cut-off = mean of normoglycemic children plus two SD
[4] = healthy adult blood donors (n=15)
[5] = pediatric control serum donors / healthy children (n=10)
[6] = healthy subjects / healthy blood donors

Q: How did the “T-cell reactivity to hsp70 peptide (epitope mapping)” value (“T-cell reactivity to hsp70 peptide” for short) [1] turn out when “KANKITITNDKGRLSKEEIE (listed as Homo sapiens) [p34, human hsp70 residues 496-515]” was run?
A: triggered a T-cell response

Q: “KEEIERMVQEAEKYKAEDEV (listed as Homo sapiens) [p35, human hsp70 residues 511-530]” was tested. Which “Number of Type 1 Diabetes subjects responding to the peptide” value (“Number” below) [1] did it give?
A: five

Q: And the “T-cell reactivity to hsp70 peptide” value [1]?
A: triggered a T-cell response

Q: Which “T-cell reactivity to hsp70 peptide” value [1] does the source give for “KRTLSSSTQASLEIDSLFEG (listed as Homo sapiens) [p19, human hsp70 residues 271-290]” here?
A: triggered a T-cell response

Q: With “LLLLDVAPLSLGLETAGGVM (listed as Homo sapiens) [p27, human hsp70 residues 391-410]” as the substance, how does the “Number” value [1] read?
A: six out of seven

Q: And the “T-cell reactivity to hsp70 peptide” value [1]?
A: triggered a T-cell response

Q: For “MAKAAAVGIDLGTTYSCVGV (listed as Homo sapiens) [p1, human hsp70 residues 1-20]”, which “Number” value [1] is on record?
A: five

Q: And the “T-cell reactivity to hsp70 peptide” value [1]?
A: triggered a T-cell response

Q: “PTKQTQIFTTYSDNQPGVLI (listed as Homo sapiens) [p29, human hsp70 residues 421-440]” was tested. Which “T-cell reactivity to hsp70 peptide” value [1] did it give?
A: triggered a T-cell response

Q: “THLGGEDFDNRLVNHFVEEF (listed as Homo sapiens) [p16, human hsp70 residues 225-244]” was tested. Which “T-cell reactivity to hsp70 peptide” value [1] did it give?
A: triggered a T-cell response

Q: For “TIDDGIFEVKATAGDTHLGG (listed as Homo sapiens) [p15, human hsp70 residues 210-229]”, which “T-cell reactivity to hsp70 peptide” value [1] is on record?
A: triggered a T-cell response

Q: How did the “Serum antibodies to control antigen, in words” value ([2]; Type 1 Diabetes and control groups) turn out when “Tetanus Toxoid: recall antigen Tetanus Toxoid (Connaught Lab. Inc, Penn., USA) [reference compound]” was run?
A: comparably high

Q: What about the “T-cell proliferative response, S.I., Mean ± SD” value ([1]; Healthy subjects) of the same substance?
A: 8.01 ± 9.3

Q: And the “T-cell proliferative response, S.I., Mean ± SD” value ([1]; Healthy subjects, listed as tetanus toxoid)?
A: 9.4±6.4

Q: What about the “T-cell proliferative response, S.I., Mean ± SD” value ([1]; Type 1 Diabetes adult patients) of the same substance?
A: 14.3 ± 22.86

Q: What about the “T-cell proliferative response, S.I., Mean ± SD” value ([1]; Type 1 Diabetes children) of the same substance?
A: 17.2±16.1

Q: What about the “T-cell proliferative response, S.I., Mean ± SD” value ([1]; Type 1 Diabetes children, listed as T.T.) of the same substance?
A: 17.2 ± 15.9

Q: And the “T-cell proliferative response, S.I., Mean ± SD” value ([1]; Type 2 Diabetes patients)?
A: 4.4

Q: What about the “T-cell proliferative response, S.I., Mean ± SD” value ([1]; Type 2 Diabetes patients, listed as tetanus toxoid) of the same substance?
A: 4.4±2.9

Q: What does the source list for “hsp70: recombinant human hsp70 (StressGen, Canada), intact heat-shock protein”?
A: IgG antibodies to the antigen in serum, Mean ± SD ([2]; Type 1 Diabetes children): 0.5 ± 0.41 Units of Optical Density at λ=405 nm; Positive (antibody level above cut-off) [2, 3]: 30%; Positive (antibody level above cut-off) ([2]; Type 1 diabetes children (n=20), cut-off = mean of normoglycemic children plus two SD, listed as Hsp70): 30%; Positive (antibody level above cut-off) [2, 4]: 6%; Positive (antibody level above cut-off) ([2]; healthy adult blood donors (n=15), listed as Hsp70): 6.6%; IgG antibodies to the antigen in serum, Mean ± SD ([2]; healthy adult blood donors): 0.43 ± 0.1 Units of Optical Density at λ=405 nm; Positive (antibody level above cut-off) [2, 5]: none; Positive (antibody level above cut-off) ([2]; pediatric control serum donors / healthy children (n=10), listed as Hsp70): 0%; IgG antibodies to the antigen in serum, Mean ± SD ([2]; pediatric control serum donors): 0.35 ± 0.09 Units of Optical Density at λ=405 nm; T-cell proliferative response, S.I., Mean ± SD ([1]; Healthy subjects): 1.4±0.6 and 1.45±0.6 and 1.44 ± 0.6; T-cell proliferative response, S.I., Mean ± SD ([1]; Type 1 Diabetes adult patients): 2.6+0.84 and 2.6 ± 0.84; Responding subjects (S.I.≥2) ([1]; Type 1 Diabetes adult patients, within 12 weeks from diagnosis): about 86%; Responding subjects (S.I.≥2) ([1]; Type 1 Diabetes children): 85%; Responding subjects (S.I.≥2) ([1]; Type 2 Diabetes patients): 27%; T-cell proliferative response, S.I., Mean ± SD ([1]; Type 2 Diabetes patients): 1.8±1.3 and 1.8 ± 1.26; Responding subjects (S.I.≥2) [1, 6]: 14% and 13%

Q: With “hsp90: recombinant human hsp90 (StressGen, Canada), heat-shock protein” as the substance, how does the “IgG antibodies to the antigen in serum, Mean ± SD” value (from here on “IgG antibodies … Mean ± SD”) ([2]; Type 1 Diabetes children) read?
A: 0.47 ± 0.13 Units of Optical Density at λ=405 nm

Q: And the “Positive (antibody level above cut-off)” value [2, 3]?
A: 15%

Q: And the “Positive (antibody level above cut-off)” value ([2]; Type 1 diabetes children (n=20), cut-off = mean of normoglycemic children plus two SD, listed as Hsp90)?
A: 15%

Q: What about the “Positive (antibody level above cut-off)” value [2, 4] of the same substance?
A: 6%

Q: And the “Positive (antibody level above cut-off)” value ([2]; healthy adult blood donors (n=15), listed as Hsp90)?
A: 6.6%

Q: What about the “IgG antibodies … Mean ± SD” value ([2]; healthy adult blood donors) of the same substance?
A: 0.46 ± 0.1 Units of Optical Density at λ=405 nm

Q: What about the “Positive (antibody level above cut-off)” value [2, 5] of the same substance?
A: none

Q: And the “Positive (antibody level above cut-off)” value ([2]; pediatric control serum donors / healthy children (n=10), listed as Hsp90)?
A: 0%

Q: And the “IgG antibodies … Mean ± SD” value ([2]; pediatric control serum donors)?
A: 0.43 ± 0.1 Units of Optical Density at λ=405 nm

Q: What about the “T-cell proliferative response, S.I., Mean ± SD” value ([1]; Healthy subjects) of the same substance?
A: 1.52±0.7

Q: And the “T-cell response, in words” value ([1]; Type 1 Diabetes adult patients (Table 1D), tested after more than 12 weeks)?
A: No response

Q: What about the “T-cell proliferative response, S.I., Mean ± SD” value ([1]; Type 1 Diabetes adult patients) of the same substance?
A: 1.4 ± 0.3

Q: And the “Responding subjects (S.I.≥2)” value ([1]; Type 1 Diabetes children)?
A: 21%

Q: And the “T-cell proliferative response, S.I., Mean ± SD” value ([1]; Type 1 Diabetes children)?
A: 1.7±1.2 and 1.7 ± 1.1

Q: What about the “Responding subjects (S.I.≥2)” value ([1]; Type 2 Diabetes patients) of the same substance?
A: 9%

Q: And the “T-cell proliferative response, S.I., Mean ± SD” value ([1]; Type 2 Diabetes patients)?
A: 1.6±1.4 and 1.6 ± 1.38

Q: What about the “Responding subjects (S.I.≥2)” value [1, 6] of the same substance?
A: 25%
